# Results reported in US6660742B2, “Compositions and methods of the use thereof achiral analogues of CC-1065 and the duocarmycins” (priority 2000, dated 2003).
# Where two headings read alike, the source gives them in different places.
# How the values were obtained:
# 786-0 = assay: NCI screen, 786-0 (Renal Cancer)
# Protocol: (§1) The compounds of this invention were also tested against the panel of 60 human cancer cell lines at the National Cancer Institute, Bethesda, Md. […] The cytrotoxicity studies were conducted using a 48 hour exposure, and measuring the optical density of sulforhodamide B-derived color.
# RXF 393 [1] = assay: NCI screen, RXF 393 (Renal Cancer)
# Protocol: as §1
# OVCAR-3 = assay: NCI screen, OVCAR-3 (Ovarian Cancer)
# Protocol: as §1
# HCC-2998 = assay: NCI screen, HCC-2998 (Colon Cancer)
# Protocol: as §1
# NCI-H460 = assay: NCI screen, NCI-H460 (Non-Small Cell Lung Cancer); type: cell-based, human
# Protocol: as §1
# M14 = assay: NCI screen, M14 (Melanoma)
# Protocol: as §1
# RXF 393 [2] = tested on: RXF 393
# Protocol: as §1
# [3] = tested on: human colon adenocarcinoma cell line, LS 174T; assay: SRB cytotoxicity on LS174T cells; type: cell-based
# Protocol: Cells were seeded in 96-well microtiter plates at densities of 1000 cells/well. The optimal seeding density was determined to ensure exponential growth in control wells throughout the experimental period and to obtain a linear relationship between absorbance at 492 nm and cell number when analyzed by the sulforhodamine B (SRB) assay (43). 24 hours after seeding the cells were incubated for 1 hour or continuously for 3 days with the drugs (concentration range 0.01 to 500 μM). The cells were washed once and then incubated in drug free medium for 6 days. At the end of the incubation cell growth was determined by the SRB assay, which quantifies viable cells by measuring their total cellular protein content. […] Similar studies were conducted against the growth of PC3 (human prostate cancer cells) and MCF-7 (human breast cancer cells).
# human H522 lung cancer = conditions: hollow fiber
# P815 mastocytoma cells = assay: MTT cytotoxicity on P815 cells; type: cell-based, murine; conditions: 72 hr incubation
# Protocol: The P815 and L1210 cell lines were obtained from American Type Tissue Culture Collection (ATCC). The cell lines were grown in Delbecco's Modified Eagle Medium (DMEM, Atlanta Biologicals) supplemented with 10% fetal bovine serum, Hepes Buffer (2 mM, Mediatech Cellgro, 25-060-Cl), L-Glutamine (2 mM, Mediatech Cellgro), and penicillin/streptomycin (50,000 units penicillin, 50,000 […], Atlanta Biologicals). Cells were maintained at 37° C. in a 5% humidified CO2 atmosphere. Cultured cells were counted using a hemocytometer and resuspended in fresh DMEM at a concentration of 8×10^5 cells/mL. This cell suspension (100 μL) was added to 96 well flat -bottom cell culture plates. At this concentration, 80,000 cells were seeded in each well. Drug solutions (dissolved in DMSO and diluted in DMEM) were added to each well (5 μL/well) resulting in final concentrations ranging from 1×10^−4 to 1×10^−12 M. Quadruplicate wells were prepared for each drug concentration. The plates were incubated for 72 hr at 37° C. in a 5% CO2 atmosphere. MTT (3-(4,5-dimethylthiazol-2-yl)-2,5-diphenyl tetrazolium bromide) was dissolved in PBS (5 mg/ml). After the indicated cell incubation period, 10 μL of this stock MTT solution was added to each well and the plates were further incubated for 4 h at 37° C. in a 5% CO2 atmosphere. […] The contents of the well were mixed thoroughly by pipetting the cell suspension up and down and the plates were allowed to sit at room temperature for 15 min in order to allow for full development of the purple color. The plates were read on a Dynatech Plate Reader, utilizing Dynex Revelation 3.2 software, with a test wavelenth of 570 nm and a reference wavelength of 630 nm.
# [4] = Log10 Concentration −4.3, 48 hour exposure
# [5] = Log10 Concentration −5.3, 48 hour exposure
# [6] = Log10 Concentration −6.3, 48 hour exposure
# [7] = Log10 Concentration −7.3, 48 hour exposure
# [8] = Log10 Concentration −8.3, 48 hour exposure
# Protocol for CCRF-CEM: as §1
# Protocol for HS 578T: The compounds of this invention were also tested against the panel of 60 human cancer cell lines at the National Cancer Institute, Bethesda, Md. (44). The cytrotoxicity studies were conducted using a 48 hour exposure, and measuring the optical density of sulforhodamide B-derived color.
# Protocol for K-562: as §1
# Protocol for MCF7: as §1
# Protocol for MOLT-4: as §1
# Protocol for OVCAR-5: as §1
# Protocol for SF-539: as §1
compound,measurement,setting,value
"COC(=O)c1[nH]c2c(O)cc(NC(=O)c3cc4cc(OC)c(OC)c(OC)c4[nH]3)c(CCCl)c2c1C(=O)OC [Compound 22, Dimethyl 4-(2-chloroethyl)-7-hydroxy-5-(5,6,7-trimethoxyindole-2-carboxamido)indole-2,3-dicarboxylate]",TGI,786-0; 48 hour exposure,4.92E−07 Molar
same,Percent Growth,786-0; [4],−50%
same,Percent Growth,786-0; [5],−26%
same,Percent Growth,786-0; [6],−1%
same,Percent Growth,786-0; [7],82%
same,Percent Growth,786-0; [8],94%
same,TGI,"MDA-MB-231/ATCC; MDA-NB-231/ATCC, 48 hour exposure",> 5.00E−05 Molar
same,Percent Growth,"MDA-MB-231/ATCC; MDA-NB-231/ATCC, Log10 Concentration −4.3, 48 hour exposure",10%
same,Percent Growth,"MDA-MB-231/ATCC; MDA-NB-231/ATCC, Log10 Concentration −5.3, 48 hour exposure",12%
same,Percent Growth,"MDA-MB-231/ATCC; MDA-NB-231/ATCC, Log10 Concentration −6.3, 48 hour exposure",16%
same,Percent Growth,"MDA-MB-231/ATCC; MDA-NB-231/ATCC, Log10 Concentration −7.3, 48 hour exposure",89%
same,Percent Growth,"MDA-MB-231/ATCC; MDA-NB-231/ATCC, Log10 Concentration −8.3, 48 hour exposure",99%
same,TGI,RXF 393 [1]; 48 hour exposure,1.31E−06 Molar
same,Percent Growth,RXF 393 [1]; [4],−65%
same,Percent Growth,RXF 393 [1]; [5],−25%
same,Percent Growth,RXF 393 [1]; [6],18%
same,Percent Growth,RXF 393 [1]; [7],57%
same,Percent Growth,RXF 393 [1]; [8],94%
same,TGI,OVCAR-3; 48 hour exposure,6.80E−06 Molar
same,Percent Growth,OVCAR-3; [4],−82%
same,Percent Growth,OVCAR-3; [5],13%
same,Percent Growth,OVCAR-3; [6],4%
same,Percent Growth,OVCAR-3; [7],87%
same,Percent Growth,OVCAR-3; [8],97%
same,TGI,HCT-15,4.00E−06 Molar
same,TGI,HCC-2998; 48 hour exposure,2.89E−07 Molar
same,Percent Growth,HCC-2998; [4],−88%
same,Percent Growth,HCC-2998; [5],−31%
same,Percent Growth,HCC-2998; [6],−27%
same,Percent Growth,HCC-2998; [7],85%
same,Percent Growth,HCC-2998; [8],91%
same,TGI,NCI-H460; 48 hour exposure,5.64E−06 Molar
same,Percent Growth,NCI-H460; [4],−69%
same,Percent Growth,NCI-H460; [5],4%
same,Percent Growth,NCI-H460; [6],8%
same,Percent Growth,NCI-H460; [7],73%
same,Percent Growth,NCI-H460; [8],84%
same,TGI,"M14; M14, 48 hour exposure",1.68E−07 Molar
same,Percent Growth,"M14; M14, Log10 Concentration −4.3, 48 hour exposure",−92%
same,Percent Growth,"M14; M14, Log10 Concentration −5.3, 48 hour exposure",−90%
same,Percent Growth,"M14; M14, Log10 Concentration −6.3, 48 hour exposure",−69%
same,Percent Growth,"M14; M14, Log10 Concentration −7.3, 48 hour exposure",77%
same,Percent Growth,"M14; M14, Log10 Concentration −8.3, 48 hour exposure",105%
"O=C(Nc1cc(O)ccc1CCCl)c1cc2cc(NC(=O)c3cc4ccccc4o3)ccc2[nH]1 [Compound 1, 4-(2-Chloroethyl)-3-[5-(5-benzofuran-2-carboxamido)indole-2-carboxamido]phenol]",CC50,OVCAR-5,20000 nM
same,Percent Growth,OVCAR-5,−29%
same,GI50,OVCAR-5; OVCAR-5,2280 nM
same,TGI,OVCAR-5; OVCAR-5,5.80E−06 Molar
same,Percent Growth,"OVCAR-5; OVCAR-5, Log10 Concentration −4.0",−99%
same,Percent Growth,"OVCAR-5; OVCAR-5, Log10 Concentration −6.0",94%
same,Percent Growth,"OVCAR-5; OVCAR-5, Log10 Concentration −7.0",95%
same,Percent Growth,"OVCAR-5; OVCAR-5, Log10 Concentration −8.0",94%
same,CC50,RXF 393 [2],4770 nM
same,GI50,786-0,2620 nM
same,TGI,786-0,1.07E−05 Molar
same,Percent Growth,786-0; Log10 Concentration −4.0,−50%
same,Percent Growth,786-0; Log10 Concentration −5.0,2%
same,Percent Growth,786-0; Log10 Concentration −6.0,85%
same,Percent Growth,786-0; Log10 Concentration −7.0,101%
same,Percent Growth,786-0; Log10 Concentration −8.0,98%
same,CC50,MCF7,5000 nM
same,IC50,"[3]; continuous exposure, read-out: IC50 LS174T Continuous exposure",2270 nM
same,IC50,"[3]; read-out: IC50 LS174T 1 hour exposure, 1 hour exposure",18000 nM
same,CC50,CCRF-CEM,> 100000 nM
same,GI50,MDA-MB-231/ATCC; MDA-MB-231/ATCC,2430 nM
same,TGI,MDA-MB-231/ATCC; MDA-MB-231/ATCC,7.10E−06 Molar
same,Percent Growth,"MDA-MB-231/ATCC; MDA-MB-231/ATCC, Log10 Concentration −4.0",−65%
same,Percent Growth,"MDA-MB-231/ATCC; MDA-MB-231/ATCC, Log10 Concentration −5.0",−16%
same,Percent Growth,"MDA-MB-231/ATCC; MDA-MB-231/ATCC, Log10 Concentration −6.0",92%
same,Percent Growth,"MDA-MB-231/ATCC; MDA-MB-231/ATCC, Log10 Concentration −7.0",97%
same,Percent Growth,"MDA-MB-231/ATCC; MDA-MB-231/ATCC, Log10 Concentration −8.0",94%
same,GI50,RXF 393 [1],982 nM
same,TGI,RXF 393 [1],2.18E−06 Molar
same,Percent Growth,RXF 393 [1]; Log10 Concentration −4.0,−94%
same,Percent Growth,RXF 393 [1]; Log10 Concentration −5.0,−97%
same,Percent Growth,RXF 393 [1]; Log10 Concentration −6.0,50%
same,Percent Growth,RXF 393 [1]; Log10 Concentration −7.0,74%
same,Percent Growth,RXF 393 [1]; Log10 Concentration −8.0,104%
same,CC50,HS 578T,> 100000 nM
same,GI50,OVCAR-3,2130 nM
same,TGI,OVCAR-3,4.69E−06 Molar
same,Percent Growth,OVCAR-3; Log10 Concentration −4.0,−99%
same,Percent Growth,OVCAR-3; Log10 Concentration −7.0,102%
same,Percent Growth,OVCAR-3; Log10 Concentration −8.0,94%
same,GI50,HCT-15,1910 nM
same,Percent Growth,HCT-15,−91%
same,TGI,HCT-15,4.89E−06 Molar
same,IP+SC score,human H522 lung cancer,18
same,cell kill,human H522 lung cancer,significant cells kill was observed
same,IP score,human H522 lung cancer; intraperitoneal fibers,8
same,SC score,human H522 lung cancer; subcutaneous fibers,10
same,CC50,SF-539,9000 nM
same,IC50,P815 mastocytoma cells,43000 nM
same,GI50,HCC-2998,1760 nM
same,TGI,HCC-2998,3.56E−06 Molar
same,Percent Growth,HCC-2998; Log10 Concentration −4.0,−97%
same,Percent Growth,HCC-2998; Log10 Concentration −7.0,97%
same,Percent Growth,HCC-2998; Log10 Concentration −8.0,96%
same,CC50,K-562,> 100000 nM
same,Percent Growth,M14,−75%
same,GI50,M14; M14,1490 nM
same,TGI,M14; M14,3.19E−06 Molar
same,Percent Growth,"M14; M14, Log10 Concentration −4.0",−99%
same,Percent Growth,"M14; M14, Log10 Concentration −6.0",76%
same,Percent Growth,"M14; M14, Log10 Concentration −7.0",91%
same,Percent Growth,"M14; M14, Log10 Concentration −8.0",93%
same,CC50,MOLT-4,> 100000 nM
